Source: patent EP0366451A2, “The use of oxidized polyamines, especially NN'-Bis-(3-propionaldehyde)-1-4-diaminobutane (sperminedialdehyde) as immunosuppressive agents” (ORTHO PHARMACEUTICAL CORPORATION, priority 1988, dated 1990)

What was measured:
(Lewis x BN) F1 rats = test: Graft vs. host reaction in rat (popliteal lymph node study); format: in vivo
Procedure: (LewXBN) rats were injected i.v. daily for 8 days with different doses of spermine dialdehyde. On day 2, BN rat spleen cells were injected subcutaneously into the left foot pads of the (LewxBN)F1 rats. These rats were sacrificed in 7 days and weights of both left and right popliteal lymph nodes were removed. The difference in weight is plotted as a function of spermine dialdehyde concentrations used.
Graft vs. host reaction in rats was measured by popliteal lymph node enlargement induced by reinjection of parental spleen cells into F1 recipients. (Lewis x BN) F1 rats were divided into groups of 10 and given daily IV injections of different doses of the test compound (spermine dialdehyde) or control preparation. Two days after the first injection, they received 9 x 10⁶ spleen cells from a parental Lewis strain (0.3 ml of a […] cell/ml preparation was injected under the skin of the ventral surface of each of the recipient's right hind foot). Injection of test compound and control article continued for 6 more days. On the seventh day, rats were sacrificed by CO₂ treatment. Both left and right politeal lymph nodes were removed and cleaned of any adhering tissue. The extent of enlargement was measured by weighing both left and right lymph nodes and differences between the two were calculated.
Graft vs. host reaction was generated in the form of popliteal lymph node in F1 recipients by subcutaneous injection of parental spleen cells. Spermine aldehyde was administered intravenously starting 2 days before parental spleen cell injection and continued until the day of lymph node measurement. Increase in popliteal lymph node swelling was scored by difference in weight between test (left) and control (right) lymph node. […] This GVH reaction is a typical manifestation of MHC class II reaction involving allogenic T lymphocytes.

C57BL mice = test: In vivo generation of cytotoxic T cells in mice; settings: Figure 5
Procedure: C57BL mice were injected i.p. daily with different doses of spermine dialdehyde. On day 2, they also received 107 DBA spleen cells. Seven days later, animals were sacrificed and percentage of cytotoxic T cells (measured by % specific lipes generated in the spleen was calculated and plotted as a function of concentration of spermine dialdehyde.
In vivo generation of cytotoxic T cells was performed according to the method described by Faanes et al., Clin. Esp. Immunol., Vol. 27 pp. 502-506 (1977). C57BL mice were arranged into groups of 10 and injected IP with different doses of spermine dialdehyde or control preparation. Two days after first injection, they received i.p. injection of 10⁷ DBA spleen cells which were prepared as described previously. Ten days after cell injection, C57 mice were sacrificed by cervical dislocation and cytotoxic T cells generated in the spleen were quantified by measuring the ability of those cells to lyse 51Cr labelled PB15 target cells (a mastocytoma, cells of DBA origin or Con A stimulated DBA spleen blasts). P815 cells or blasts were suspended at 10⁷ cells/ml and incubated with 200 MCi of 51Cr for 1 hour at 37°C. […] After incubation, 100 Ml of supernatant was removed and counted in the gamma counter. The percentage of cytotoxic T cells was calculated: [formula] […]

[1] = test system: NADP-linked cytosolic ALDH; test: NADP-linked cytosolic ALDH assay, L1210/CPA cells; format: biochemical, Murine; settings: SDA as substrate, L1210/CPA cells
Procedure: Cultured murine leukemic cells and livers (excised from mice immediately after cervical dislocation) were homogenized in 3 volumes of ice-cold 1.15% KCl and 1 mM EDTA. The homogenate was centrifuged at 100,000 g for 45 min and the resulting supernatant was used to measure cytosolic ALDH activity. For particulate ALDH assay, the pellet (and homogenate for total ALDH) was resuspended in homogenizing buffer and treated with 0.25% Triton X-100 for 30 min at 4°C. The solubilized preparations were centrifuged at 48,000 g for 30 min and the supernatants were drawn off for ALDH determinations.
ALDH activity was measured by monitoring the reduction of NAD or NADp for 5-6 min at […] at 37°C in DU70 spectrophotometer (Beckman). The assay mixture contained 50 mM potassium phosphate buffer, pH 7.4, 2.0 mM NAD (or NADP) and 1.0 mM EDTA. The reaction was started by adding the substrate (SDA or other aldehyde) to the prewarmed (5 min at 37°C) assay mixture containing enzyme preparation. Pyrazole (0.1 mM) was added particularly for liver enzyme, to inhibit alcohol dehydrogenase. The apparent Km and maximum velocity (Vmax) values were calculated using a Lineweaver-Burk plot based on the estimation of the slope by regression analysis. Enzyme activity was expressed as mU (nmoles/min) per mg of protein. Protein contents were determined by the Bradford method, using bovine serum albumin as the standard. […]

[2] = intraperitoneally; Israel et al.; cited from earlier work

Q: What does the source list for `O=CCCNCCCCNCCC=O` [SDA, NN′-Bis-(3-propionaldehyde)-1-4-diaminobutane]?
A: ED (maximum) ((Lewis x BN) F1 rats; Rattus norvegicus, iv, Figure 4, read-out: dose required to achieve maximum suppression of GVH reaction in vivo): 5 mg/kg; minimal effective dose ((Lewis x BN) F1 rats; Rattus norvegicus, intravenously or subcutaneously, read-out: dose effective to suppress graft vs. host reactions): 5 to 10 mg/kg; GVH reaction (popliteal lymph node swelling) ((Lewis x BN) F1 rats; intravenous, daily, Figure 4): significantly suppressed the GVH reaction; ED (maximum) (C57BL mice; Mus musculus, T-cell, ip, read-out: dose that appeared to attain maximum suppression of cytotoxic T cell generation): 10 mg/kg; generation of cytotoxic T cells (C57BL mice; i.p.): suppressed the generation of cytotoxic T cells in a dose related manner; activity of NADP-linked cytosolic ALDH [1]: 3.0-3.5 mU/mg protein; LD100 [2]: 40 mg/kg
